We go through eight compounds from ChEMBL document CHEMBL1201862, “PubChem BioAssay data set” (2004).

Several values for one entry are separate records, joined by “and”; a condition that tells them apart may be missing. Equal entries are not always repeated. Activity calls are given as the source filed them. A value given as a limit tells only on which side of the number the result lay.

The target in assay [1] is Beta-2 adrenergic receptor (Homo sapiens, UniProt P07550). Briefly: ADRB2 activation measured by internalization – cell-based, FAP fluorogen, flow cytometry, cherry pick 1, dose response (AID 588763). Type of assay: functional.
The next assay relates to Jurkat. The experiment in a line: SAR Analysis of small molecule inhibitors of T-cell specific antigen receptor-induced NF-kB activation in a Jurkat cell line using a luminescence assay - Set 2. [Related pubchem assays (depositor defined):AID435003, AID435012, AID465]. Type of assay: functional, cell-based. Particulars: Homo sapiens.
A short description of assay [2]: HEK-293T cell viability reduction – luminescence, B-cell screen hits, cytotoxicity control for BCR NF-kB inhibitor project, dose response (AID 489021).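 Also: HEK-293T cells carrying an NF-kB luciferase reporter; cells exposed to compound for about 14 hours before viability readout.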 Type of assay: functional, cell-based.
For assay [3], the system named is HEK293. The experiment in a line: HEK293T cell viability loss, resazurin readout – resazurin fluorescence, cytotoxicity control for NF-kB activator project, SAR follow-up (AID 493251). Type of assay: functional, cell-based. Particulars: Homo sapiens. (In general: Resazurin is reduced to fluorescent resorufin, in cell work by metabolically active cells.)
Assay [4] concerns HEK293. Briefly: SAR Analysis of small molecule inhibitors of T-cell specific antigen receptor-induced NF-kB activation in a HEK-293T cell line using a luminescence assay - Set 2. [Related pubchem assays (depositor defined):AID435003, AID435012, AID489026]. Type of assay: functional, cell-based. Particulars: Homo sapiens.
Assay [5] in a line: viability loss in Vero cells – cytotoxicity control for Vif-APOBEC3G degradation inhibitor project, dose response (AID 1117358). Type of assay: functional. Particulars: Vero.
Assay [6] concerns the target Dual specificity tyrosine-phosphorylation-regulated kinase 1A (Rattus norvegicus, UniProt Q63470). Type of assay: biochemical, Homo sapiens.
Assay [7] concerns the target Dual specificity protein kinase CLK1 (Homo sapiens, UniProt P49759). The experiment in a line: inhibition of human CLK1 activity – biochemical, cherry-picked samples, selectivity assay for Dyrk1A inhibitor project, dose response (AID 588811).
For the next assay, the target named is Mu-type opioid receptor (Homo sapiens, UniProt P35372). The experiment in a line: Counterscreen for agonists of heterodimerization of the mu 1 (OPRM1) and delta 1 (OPRD1) opioid receptors: Luminescence-based cell-based high throughput dose response assay to identify agonists of OPRM1 homodimerization. Type of assay: functional. (In general: Counterscreens check selectivity or assay interference.);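 also: U2OS cells expressing OPRM1 and beta-arrestin as split beta-galactosidase partners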

Assay [8] deals with 5-hydroxytryptamine receptor 5A (Homo sapiens, UniProt P47898). Briefly: Counterscreen for agonists of OPRM1-OPRD1 heterodimerization: luminescence-based cell-based high throughput dose response assay to identify agonists of 5-hydroxytryptamine (serotonin) 5A receptor (HTR5A). [Related pubchem assays (depositor defined):AID504326, AID504355, AID504692, AID504904, AID504905]. Type of assay: functional.

Assay [9] concerns the target Opioid receptors; mu & delta (Homo sapiens, UniProt P41143+P35372). The experiment in a line: OPRM1-OPRD1 heterodimer agonist potency – cell-based, luminescence, dose response (AID 588407). Type of assay: functional.
Assay [10] deals with Delta-type opioid receptor (Homo sapiens, UniProt P41143). The experiment in a line: Counterscreen for agonists of heterodimerization of the mu 1 (OPRM1) and delta 1 (OPRD1) opioid receptors: Luminescence-based cell-based high throughput dose response assay to identify agonists of OPRD1 homodimerization. [Related pubchem assays (depositor defined):AID504326, AID504355, AID504692, AID504904, AID504905]. Type of assay: functional.

A further assay addresses Hexokinase-1 (Homo sapiens, UniProt P19367). The experiment in a line: SAR analysis of small molecule inhibitors of hexokinase domain containing I (HKDC1) in the hexokinase 1 selectivity assay. [Related pubchem assays (depositor defined):AID493160, AID493190]. Type of assay: functional.
The target of the next assay is T1, Hexokinase HKDC1 (Homo sapiens, UniProt Q2TB90).
T1 sequence (Q2TB90 whole entry): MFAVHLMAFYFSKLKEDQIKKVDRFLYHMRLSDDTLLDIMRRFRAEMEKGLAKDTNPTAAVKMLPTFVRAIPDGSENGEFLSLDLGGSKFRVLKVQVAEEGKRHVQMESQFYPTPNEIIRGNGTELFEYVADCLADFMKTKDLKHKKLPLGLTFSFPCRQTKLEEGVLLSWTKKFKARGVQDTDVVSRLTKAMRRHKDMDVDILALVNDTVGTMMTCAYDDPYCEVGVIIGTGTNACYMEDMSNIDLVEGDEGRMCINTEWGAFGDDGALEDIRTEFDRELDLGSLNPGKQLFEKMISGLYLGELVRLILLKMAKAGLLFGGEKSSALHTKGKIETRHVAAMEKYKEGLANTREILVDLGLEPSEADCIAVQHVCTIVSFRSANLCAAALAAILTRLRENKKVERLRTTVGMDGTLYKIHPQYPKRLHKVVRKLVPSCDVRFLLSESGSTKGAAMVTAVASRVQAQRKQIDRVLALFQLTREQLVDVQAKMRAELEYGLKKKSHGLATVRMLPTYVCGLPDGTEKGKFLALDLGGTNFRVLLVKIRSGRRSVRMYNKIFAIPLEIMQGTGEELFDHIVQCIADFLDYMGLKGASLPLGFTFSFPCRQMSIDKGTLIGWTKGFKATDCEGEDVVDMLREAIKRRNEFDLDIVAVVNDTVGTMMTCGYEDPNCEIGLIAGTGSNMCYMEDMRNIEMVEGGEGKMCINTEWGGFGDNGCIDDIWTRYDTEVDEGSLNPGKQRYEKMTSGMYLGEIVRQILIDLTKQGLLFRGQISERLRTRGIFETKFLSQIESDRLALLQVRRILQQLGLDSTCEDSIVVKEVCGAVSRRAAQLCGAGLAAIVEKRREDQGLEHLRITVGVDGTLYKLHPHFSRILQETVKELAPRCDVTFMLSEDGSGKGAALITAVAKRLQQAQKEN
Briefly: SAR analysis of small molecule inhibitors of hexokinase domain containing I (HKDC1). [Related pubchem assays (depositor defined):AID493160, AID493190]. Type of assay: functional.

The test system of the next assay is Escherichia coli. The experiment in a line: microbe, parasite or virus in culture.
The target of assay [11] is Glycogen synthase kinase-3 beta (Homo sapiens, UniProt P49841). The experiment in a line: Inhibition of Human GSK-3 beta Activity Measured in Biochemical System Using Microfluidics - 2063-05_Inhibitor_Dose_DryPowder_Activity. [Related pubchem assays (depositor defined):AID2709].
For assay [12], the target named is Glycogen synthase kinase-3 alpha (Homo sapiens, UniProt P49840). The experiment in a line: Inhibition of Human GSK-3 alpha Activity Measured in Biochemical System Using Microfluidics - 2063-06_Inhibitor_Dose_DryPowder_Activity. [Related pubchem assays (depositor defined):AID2709].
For assay [13], the target named is T2, Apoptotic protease-activating factor 1 (Homo sapiens, UniProt O14727).
T2 sequence (O14727 whole entry): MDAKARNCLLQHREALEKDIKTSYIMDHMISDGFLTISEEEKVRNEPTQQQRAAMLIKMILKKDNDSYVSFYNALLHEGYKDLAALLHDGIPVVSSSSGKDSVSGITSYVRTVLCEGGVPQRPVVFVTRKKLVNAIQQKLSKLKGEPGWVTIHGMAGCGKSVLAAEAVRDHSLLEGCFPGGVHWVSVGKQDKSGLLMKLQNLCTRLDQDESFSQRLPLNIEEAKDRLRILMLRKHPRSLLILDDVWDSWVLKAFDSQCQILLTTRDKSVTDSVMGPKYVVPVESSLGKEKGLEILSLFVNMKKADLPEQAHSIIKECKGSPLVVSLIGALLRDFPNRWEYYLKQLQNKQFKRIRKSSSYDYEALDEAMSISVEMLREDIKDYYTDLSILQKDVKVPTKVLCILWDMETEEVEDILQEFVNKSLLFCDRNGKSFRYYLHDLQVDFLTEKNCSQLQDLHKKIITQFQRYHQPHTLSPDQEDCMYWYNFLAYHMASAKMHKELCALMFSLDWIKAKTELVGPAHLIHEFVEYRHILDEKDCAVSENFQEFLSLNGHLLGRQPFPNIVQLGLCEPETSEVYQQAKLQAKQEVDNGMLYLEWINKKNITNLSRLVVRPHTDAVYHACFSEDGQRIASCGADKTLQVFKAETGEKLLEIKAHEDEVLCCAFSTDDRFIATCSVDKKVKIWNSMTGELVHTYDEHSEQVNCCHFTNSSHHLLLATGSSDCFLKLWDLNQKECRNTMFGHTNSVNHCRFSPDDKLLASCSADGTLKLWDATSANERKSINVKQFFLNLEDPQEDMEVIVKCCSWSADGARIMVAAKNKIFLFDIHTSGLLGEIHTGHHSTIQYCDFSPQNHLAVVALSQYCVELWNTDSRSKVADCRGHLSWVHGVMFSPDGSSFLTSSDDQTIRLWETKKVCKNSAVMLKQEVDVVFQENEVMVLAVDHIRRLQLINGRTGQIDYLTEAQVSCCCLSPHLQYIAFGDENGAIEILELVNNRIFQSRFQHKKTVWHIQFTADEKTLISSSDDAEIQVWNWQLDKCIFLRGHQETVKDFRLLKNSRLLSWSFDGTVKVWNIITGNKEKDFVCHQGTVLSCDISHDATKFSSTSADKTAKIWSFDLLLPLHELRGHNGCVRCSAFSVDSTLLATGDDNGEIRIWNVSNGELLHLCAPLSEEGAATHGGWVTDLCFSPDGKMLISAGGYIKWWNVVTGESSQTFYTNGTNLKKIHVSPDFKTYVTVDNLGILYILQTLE
Type of assay: functional.

Assay [14] addresses T3, Zinc finger protein mex-5 (Caenorhabditis elegans, UniProt Q9XUB2).
T3 sequence (Q9XUB2 whole entry): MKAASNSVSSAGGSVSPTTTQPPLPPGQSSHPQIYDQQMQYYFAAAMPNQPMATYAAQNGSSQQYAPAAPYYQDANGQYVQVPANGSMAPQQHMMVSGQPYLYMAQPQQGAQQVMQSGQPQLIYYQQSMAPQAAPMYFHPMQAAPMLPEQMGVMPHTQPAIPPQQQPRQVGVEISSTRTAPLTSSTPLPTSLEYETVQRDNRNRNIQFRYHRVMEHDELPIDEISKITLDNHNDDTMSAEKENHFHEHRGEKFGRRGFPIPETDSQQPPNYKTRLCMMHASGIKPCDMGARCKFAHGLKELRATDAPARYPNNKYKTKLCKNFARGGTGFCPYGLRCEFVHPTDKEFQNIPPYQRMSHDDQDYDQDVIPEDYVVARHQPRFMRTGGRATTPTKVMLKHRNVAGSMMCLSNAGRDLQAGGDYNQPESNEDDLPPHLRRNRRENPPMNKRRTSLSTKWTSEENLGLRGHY
The experiment in a line: potency of MEX-5 RNA-binding blockers – biochemical, C. elegans, fluorescence polarization, dose response (AID 1960). On the technique in general: Polarisation of emitted light reports the rotation of a fluorescent probe.

The target of assay [15] is T4, RNA-binding protein pos-1 (Caenorhabditis elegans, UniProt G5EF15).
T4 sequence (G5EF15 whole entry): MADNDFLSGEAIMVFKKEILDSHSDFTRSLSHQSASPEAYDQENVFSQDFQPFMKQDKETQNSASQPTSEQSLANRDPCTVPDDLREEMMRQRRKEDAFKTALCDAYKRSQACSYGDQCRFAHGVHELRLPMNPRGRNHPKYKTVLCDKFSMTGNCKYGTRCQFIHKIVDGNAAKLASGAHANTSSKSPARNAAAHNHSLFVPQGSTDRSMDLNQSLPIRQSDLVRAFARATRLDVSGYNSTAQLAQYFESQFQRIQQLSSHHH
Briefly: disruptors of C. elegans POS-1 RNA interaction – biochemical, fluorescence polarization, dose response (AID 1964).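 Also: purified POS-1 fused to maltose binding protein made in E. coli; potency of compounds blocking POS-1 binding to fluorescent RNA.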

Assay [16] has as its target Long-chain-fatty-acid--AMP ligase FadD28 (Mycobacterium tuberculosis, UniProt P9WQ59). Briefly: Fluorescence polarization aasay to screen for inhibitors that compete for the binding of FadD28 to a bisubstrate Measured in Biochemical System Using Plate Reader - 2147-01_Inhibitor_Dose_CherryPick_Activity. Type of assay: functional, Mycobacterium tuberculosis H37Rv.
Another assay concerns the target Beta-arrestin-1 (Homo sapiens, UniProt P49407). The experiment in a line: beta-arrestin/AP2 interaction blockers, potency – biochemical, cherry pick 1, beta2-adaptin appendage, flow cytometry, dose response (AID 588783). Type of assay: functional.

Beta-2 adrenergic receptor, sequence (P07550 whole entry): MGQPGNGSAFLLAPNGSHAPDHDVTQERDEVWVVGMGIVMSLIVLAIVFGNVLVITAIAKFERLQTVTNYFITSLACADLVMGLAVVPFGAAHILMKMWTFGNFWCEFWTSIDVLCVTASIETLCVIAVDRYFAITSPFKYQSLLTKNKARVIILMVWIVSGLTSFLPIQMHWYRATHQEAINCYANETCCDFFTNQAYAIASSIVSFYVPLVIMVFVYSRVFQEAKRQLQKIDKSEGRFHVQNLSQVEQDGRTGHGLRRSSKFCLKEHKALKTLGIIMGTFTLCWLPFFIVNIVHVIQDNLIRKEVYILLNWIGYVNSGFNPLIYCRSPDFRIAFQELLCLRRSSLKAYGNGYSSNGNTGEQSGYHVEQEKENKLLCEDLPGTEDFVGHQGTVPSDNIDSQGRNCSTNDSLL
Delta-type opioid receptor, sequence (P41143 whole entry): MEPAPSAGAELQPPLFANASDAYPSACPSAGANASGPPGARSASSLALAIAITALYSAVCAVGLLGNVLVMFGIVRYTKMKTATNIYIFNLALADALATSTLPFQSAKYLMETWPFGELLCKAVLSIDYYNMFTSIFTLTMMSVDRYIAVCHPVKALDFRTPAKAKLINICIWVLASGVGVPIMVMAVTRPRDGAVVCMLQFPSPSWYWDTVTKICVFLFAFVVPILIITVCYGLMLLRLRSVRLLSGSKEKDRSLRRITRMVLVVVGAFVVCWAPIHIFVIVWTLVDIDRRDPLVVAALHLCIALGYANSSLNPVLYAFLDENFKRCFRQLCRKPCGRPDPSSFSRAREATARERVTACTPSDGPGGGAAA
Dual specificity protein kinase CLK1, sequence (P49759 whole entry): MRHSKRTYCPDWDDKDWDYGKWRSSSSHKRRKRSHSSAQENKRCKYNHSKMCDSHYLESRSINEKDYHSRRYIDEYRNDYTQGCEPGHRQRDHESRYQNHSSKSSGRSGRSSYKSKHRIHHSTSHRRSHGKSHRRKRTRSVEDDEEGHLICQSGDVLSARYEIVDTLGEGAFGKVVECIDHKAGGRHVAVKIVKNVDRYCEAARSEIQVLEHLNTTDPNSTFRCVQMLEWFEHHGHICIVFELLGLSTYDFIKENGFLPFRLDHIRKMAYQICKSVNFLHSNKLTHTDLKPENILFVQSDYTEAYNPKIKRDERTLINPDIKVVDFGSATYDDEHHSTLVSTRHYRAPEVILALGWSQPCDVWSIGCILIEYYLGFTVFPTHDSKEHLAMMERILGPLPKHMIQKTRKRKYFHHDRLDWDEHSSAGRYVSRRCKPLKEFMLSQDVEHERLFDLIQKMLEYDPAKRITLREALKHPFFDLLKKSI
Hexokinase-1, sequence (P19367 whole entry, the tested form may be a part): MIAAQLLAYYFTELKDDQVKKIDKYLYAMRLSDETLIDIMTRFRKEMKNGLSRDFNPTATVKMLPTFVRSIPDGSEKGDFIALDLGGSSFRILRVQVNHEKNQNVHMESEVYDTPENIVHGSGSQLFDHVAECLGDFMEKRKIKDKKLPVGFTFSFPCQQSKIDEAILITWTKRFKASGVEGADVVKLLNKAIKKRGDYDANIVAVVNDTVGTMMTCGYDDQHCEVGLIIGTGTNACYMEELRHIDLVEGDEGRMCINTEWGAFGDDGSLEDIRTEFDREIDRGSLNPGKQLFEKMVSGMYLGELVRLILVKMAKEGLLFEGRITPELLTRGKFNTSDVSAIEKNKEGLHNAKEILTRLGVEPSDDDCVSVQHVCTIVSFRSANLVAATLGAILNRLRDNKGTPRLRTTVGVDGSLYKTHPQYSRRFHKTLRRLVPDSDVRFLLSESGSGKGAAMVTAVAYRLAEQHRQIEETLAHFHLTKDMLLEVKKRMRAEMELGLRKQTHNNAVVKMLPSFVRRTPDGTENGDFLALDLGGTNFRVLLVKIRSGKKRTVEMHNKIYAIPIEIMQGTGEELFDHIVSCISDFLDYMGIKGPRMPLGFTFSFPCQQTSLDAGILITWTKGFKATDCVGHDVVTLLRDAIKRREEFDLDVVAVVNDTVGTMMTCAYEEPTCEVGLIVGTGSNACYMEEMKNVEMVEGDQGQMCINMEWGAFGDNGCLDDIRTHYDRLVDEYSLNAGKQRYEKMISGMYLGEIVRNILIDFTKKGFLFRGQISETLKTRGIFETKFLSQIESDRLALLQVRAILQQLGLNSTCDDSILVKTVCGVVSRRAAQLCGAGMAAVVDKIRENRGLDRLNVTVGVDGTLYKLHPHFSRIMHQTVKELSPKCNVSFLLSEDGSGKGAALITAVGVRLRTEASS
Glycogen synthase kinase-3 beta, sequence (P49841 whole entry): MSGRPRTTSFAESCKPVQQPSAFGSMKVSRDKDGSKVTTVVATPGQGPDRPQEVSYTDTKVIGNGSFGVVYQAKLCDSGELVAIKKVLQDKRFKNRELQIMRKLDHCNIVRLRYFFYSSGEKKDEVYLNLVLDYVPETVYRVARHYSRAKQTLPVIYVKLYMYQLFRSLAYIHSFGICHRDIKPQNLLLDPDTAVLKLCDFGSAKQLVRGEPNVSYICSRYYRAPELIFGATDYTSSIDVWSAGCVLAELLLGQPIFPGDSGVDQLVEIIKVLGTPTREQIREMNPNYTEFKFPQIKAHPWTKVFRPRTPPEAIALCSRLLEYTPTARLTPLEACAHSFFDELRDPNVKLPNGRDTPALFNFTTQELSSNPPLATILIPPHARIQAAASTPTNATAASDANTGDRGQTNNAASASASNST
Mu-type opioid receptor, sequence (P35372 whole entry): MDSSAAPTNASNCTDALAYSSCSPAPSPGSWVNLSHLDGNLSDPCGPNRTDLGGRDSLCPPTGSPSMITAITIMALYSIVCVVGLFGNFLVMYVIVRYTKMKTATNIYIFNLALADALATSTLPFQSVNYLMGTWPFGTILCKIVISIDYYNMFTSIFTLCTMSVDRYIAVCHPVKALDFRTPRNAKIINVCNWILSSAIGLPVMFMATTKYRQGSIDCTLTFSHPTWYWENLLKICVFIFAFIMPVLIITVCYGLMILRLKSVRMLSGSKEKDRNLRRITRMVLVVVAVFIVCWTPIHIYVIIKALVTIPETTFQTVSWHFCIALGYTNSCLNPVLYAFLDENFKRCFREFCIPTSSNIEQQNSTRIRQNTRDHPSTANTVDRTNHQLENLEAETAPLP
Long-chain-fatty-acid--AMP ligase FadD28, sequence (P9WQ59 whole entry): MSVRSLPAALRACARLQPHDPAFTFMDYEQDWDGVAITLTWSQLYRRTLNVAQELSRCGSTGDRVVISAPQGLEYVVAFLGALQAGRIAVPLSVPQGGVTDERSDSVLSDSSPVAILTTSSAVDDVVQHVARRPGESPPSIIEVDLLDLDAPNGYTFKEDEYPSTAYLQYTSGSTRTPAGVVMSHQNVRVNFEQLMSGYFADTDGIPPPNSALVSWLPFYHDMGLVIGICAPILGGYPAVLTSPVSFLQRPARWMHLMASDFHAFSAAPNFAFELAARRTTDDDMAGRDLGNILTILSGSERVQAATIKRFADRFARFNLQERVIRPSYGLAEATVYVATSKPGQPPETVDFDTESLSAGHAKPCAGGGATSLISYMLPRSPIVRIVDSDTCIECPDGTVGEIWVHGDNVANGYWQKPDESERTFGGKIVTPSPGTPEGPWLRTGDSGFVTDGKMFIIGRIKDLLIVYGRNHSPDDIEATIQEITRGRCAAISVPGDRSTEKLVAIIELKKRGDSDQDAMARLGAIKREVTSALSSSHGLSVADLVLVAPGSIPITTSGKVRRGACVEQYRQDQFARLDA
Beta-arrestin-1, sequence (P49407 whole entry): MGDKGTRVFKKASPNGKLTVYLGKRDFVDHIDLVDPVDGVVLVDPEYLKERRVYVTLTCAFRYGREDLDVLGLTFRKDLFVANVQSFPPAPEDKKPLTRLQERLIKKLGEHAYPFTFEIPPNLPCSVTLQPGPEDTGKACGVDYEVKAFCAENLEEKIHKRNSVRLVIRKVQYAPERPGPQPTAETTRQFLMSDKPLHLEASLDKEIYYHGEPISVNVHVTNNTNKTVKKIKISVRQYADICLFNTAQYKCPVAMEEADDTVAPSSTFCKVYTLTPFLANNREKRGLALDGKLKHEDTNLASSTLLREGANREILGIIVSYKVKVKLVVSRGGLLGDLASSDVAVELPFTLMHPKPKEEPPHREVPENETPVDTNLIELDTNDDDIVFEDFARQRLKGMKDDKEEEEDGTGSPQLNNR
5-hydroxytryptamine receptor 5A, sequence (P47898 whole entry): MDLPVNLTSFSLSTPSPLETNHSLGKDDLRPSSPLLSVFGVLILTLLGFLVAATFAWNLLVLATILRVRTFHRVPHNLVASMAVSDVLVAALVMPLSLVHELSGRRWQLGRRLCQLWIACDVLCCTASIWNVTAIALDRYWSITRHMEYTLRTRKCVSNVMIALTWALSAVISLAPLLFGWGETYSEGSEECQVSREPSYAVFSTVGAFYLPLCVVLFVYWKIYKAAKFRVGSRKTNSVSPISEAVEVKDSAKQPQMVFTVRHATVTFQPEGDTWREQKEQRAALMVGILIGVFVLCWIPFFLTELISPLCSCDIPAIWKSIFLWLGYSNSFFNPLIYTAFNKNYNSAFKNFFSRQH
Glycogen synthase kinase-3 alpha, sequence (P49840 whole entry): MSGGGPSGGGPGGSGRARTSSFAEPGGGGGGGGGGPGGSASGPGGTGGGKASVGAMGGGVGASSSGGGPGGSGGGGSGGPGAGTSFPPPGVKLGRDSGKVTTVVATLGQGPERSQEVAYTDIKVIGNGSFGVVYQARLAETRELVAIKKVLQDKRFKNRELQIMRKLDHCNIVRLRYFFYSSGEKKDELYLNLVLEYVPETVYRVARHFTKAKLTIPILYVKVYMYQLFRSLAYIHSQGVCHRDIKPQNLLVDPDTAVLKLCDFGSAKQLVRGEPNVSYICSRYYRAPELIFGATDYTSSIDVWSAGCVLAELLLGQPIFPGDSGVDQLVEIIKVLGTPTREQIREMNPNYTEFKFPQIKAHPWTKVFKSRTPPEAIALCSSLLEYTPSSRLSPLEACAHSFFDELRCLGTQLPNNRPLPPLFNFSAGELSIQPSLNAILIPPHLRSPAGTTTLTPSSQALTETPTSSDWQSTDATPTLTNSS

As for `CCOC(=O)c1ccc(NC(=O)Cn2nnc(-c3ccc(C)cc3)n2)cc1`, the concentration for a half-maximal effect (EC50) in assay [1] was 158 nM (active) and 839 nM (active).
For `COc1cc(-c2nc3n(n2)C(c2ccc(F)cc2)C2=C(O)CCCC2=N3)cc(OC)c1OC` (configuration not stated), the IC50 with Jurkat is > 79 µM (inactive); in assay [2], > 80 µM (inactive); in the assay on HEK293 [3] it was 39.1 µM (inactive); in the assay on HEK293 [4], 31.4 µM (inactive).
As for `CN(C)S(=O)(=O)c1ccc(NC(=O)c2cc3ccccc3o2)cc1`, in [5], the cytotoxic concentration (CC50) was > 40 µM (active). Besides, the AC50 is 29.9 µM (active) in assay [6] and 21.1 µM (active) in assay [7].
Turning to `Br.CC1[C@H]2Cc3ccc(O)cc3[C@]1(C)CCN2CCc1ccccc1` (some centres not stated), the EC50 at Mu-type opioid receptor is > 10.3 µM (inactive); in assay [8] it was > 92.5 µM (inactive); in assay [9], > 0.01406 µM; in assay [10], 0.551 µM (active).
For `O=c1c2ccccc2nc(/C=C/c2cccnc2)n1Cc1ccccc1F`, the IC50 at Hexokinase-1 and on Hexokinase HKDC1 was > 80 µM (inactive) each time.
For the compound `Cc1cc(C)n2nc(SCC(=O)N3CCN(c4ccccc4)CC3)nc2n1`, the AC50 with Escherichia coli was 106 µM (active).
For the compound `c1cncc(-c2nc(NCCCn3cccc3)c3ccccc3n2)c1`, the concentration at half-maximal activity (AC50) in assay [11] is 2.97 µM (active); in assay [12] it was 7.63 µM (active).
For `Cc1cc2nc3ccc(N(C)C)cc3nc2cc1N`, the half-maximal inhibitory concentration (IC50) is 34 µM (active) in assay [13] and 8.88 µM (active) on Beta-arrestin-1. Besides, the EC50 is 14.3 µM (active) in [14] and 13 µM (active) in [15]. Moreover, in assay [16], the AC50 was 33.6 µM (active).

As usually defined, the EC50 is the concentration that produces a half-maximal response. As a reminder, the IC50 is the concentration needed to halve the response being measured. The term CC50 denotes the concentration giving 50% cytotoxicity. As a reminder, the AC50 is the concentration at which the activity in the assay is half-maximal.
